According to patent publication US8987246B2, “Methods for treatment of autism spectrum disorder” (The Johns Hopkins University, priority 2012, dated 2015):

Columns and labels:
individuals with SLOS = conditions: cited from earlier work
[1] = tested on: subjects with Smith-Lemli-Opitz Syndrome; assay: Retrospective analysis of rate of change in current state ADI scores before and after cholesterol supplementation; type: in vivo, human; conditions: for Cholesterol effect (regression coefficient) on average change in ADI Nonverbal score per year / Cholesterol effect (regression coefficient) on average change in ADI Repetitive score per year / Cholesterol effect (regression coefficient) on average change in ADI Social score per year / Cholesterol effect (regression coefficient) on average change in ADI Verbal score per year: negative = improvement
Protocol: Cholesterol Supplementation Improved Behavioral Symptoms and May Improve ASD Features in SLOS. The Autism Diagnostic Interview was conducted with 6 SLOS individuals, and data was obtained for 3 “current state” time-points: age 4-5, just before starting cholesterol supplementation, and present while on cholesterol. The change in the score of three ADI algorithm domains—Social, Communication, and Restricted, Repetitive, and Stereotyped Behavior—was estimated. Because the time between visits varied from subject to subject, a model was developed to control for age and time lapse between tests. A detailed description of the model and outcomes is included in Example 1. In summary, on the Social domain, the individuals on cholesterol supplementation improved by an average of 7.07 points more than children not on supplementation (p value 0.008). The ADI Communication domain has a non-verbal score that is completed for all individuals and a verbal score that is completed in those individuals who have phrase speech. The value for the non-verbal score is within the verbal total score. In the non-verbal children, the language domain score improved 2.51, p value 0.04. […] In the Repetitive domain, the children worsened an average of 1.54 points (p value<0.001) (Example 1).
The variables listed in the analysis of the primary outcomes are below. i=1, . . . , 6 children, j=2, 3 visits • socialchij=average change in social measure per year for child i between age at visit j and age at visit j−1. (More specifically, socialchij is social score at visit j minus social score at visit j−1, divided by the number of years between visits j and j−1.) • verbalchij=average change in verbal measure per year for child i between age at visit j and age at visit j−1. • nonverbalchij=average change in nonverbalchij measure per year for child i between age at visit j and age at visit j−1. • repetchij=average change in repetitive measure per year for child i between age at visit j and age at visit j−1.
ageij=age of child i at visit j at which measure was performed
agedifij=number of years between visit j and visit j−1
agecholij=age at which cholesterol supplementation began for child i
cholij=1 if cholesterol supplementation has occurred at prior to visit j for child i.
Note that the large improvements are consistent with large negative values. In other words, if a child has a large improvement in social score between visits j−1 and j, this will be reflected as a large negative value for socialchij.
So, the idea is to model the average change in scores before and after supplementation, adjusting for age, the number of years between visits, and the age at which supplementation occurred. To do this, our linear model for “social” is socialchij=β0i+[…]+β2agedifij+β3agecholij+β4cholij+eij
We use a linear regression model that allows for correlation between observations from the same individual. Using this model, we estimate the […] parameters in the model, which measure the direction and magnitude of the association between social score change and each of the covariates (i.e., age, age difference, age at cholesterol, and cholesterol). The same model was fit for each of the four outcomes. The table below gives the estimated coefficients for each of the 4 primary outcome variables.

[2] = 6 SLOS children, model with age, age difference, age at cholesterol, cholesterol
[3] = model leaving out age at cholesterol
[4] = model leaving out age difference from last visit

In the case of CC(C)CCC[C@@H](C)[C@H]1CC[C@H]2[C@@H]3CC=C4C[C@@H](O)CC[C@]4(C)[C@H]3CC[C@]12C [Cholesterol, cholesterol], the “Developmental status over time with cholesterol supplementation” value (individuals with SLOS; SLOS, one group) is listed as “did not improve”, the “Growth, speech articulation and neurodevelopmental status with cholesterol supplementation” value (individuals with SLOS; SLOS, some reports) is listed as “improves” and the “Irritability, sleep disturbance and obsessive compulsive behavior with cholesterol supplementation” value (individuals with SLOS; individuals with SLOS) is listed as “improve with cholesterol supplementation”. The “Cholesterol effect (regression coefficient) on average change in ADI Nonverbal score per year” value [1, 2] was −2.51, the “Cholesterol effect (regression coefficient) on average change in ADI Repetitive score per year” value [1, 2] was 1.54 and the “Cholesterol effect (regression coefficient) on average change in ADI Social score per year” value [1, 2] was −7.07. The “Cholesterol effect (regression coefficient) on average change in ADI Verbal score per year” value [1, 2] was −6.97, the “ADI Repetitive domain: average worsening” value ([1]; SLOS children on cholesterol supplementation, p value<0.001) was 1.54 points and the “ADI Social domain: average improvement more than children not on supplementation” value ([1]; SLOS individuals on cholesterol supplementation, p value 0.008) was 7.07 points. For the same compound, the “Association of cholesterol supplementation with social, verbal and non-verbal scores (correlation matrix, FIG. 1)” value ([1]; children who have already begun supplementation, not accounting for age or other factors) was “scores tend to be lower on average”, the “Social and communication abilities with cholesterol supplementation” value ([1]; in SLOS) was “improvement was found” and the “Cholesterol effect (regression coefficient) on average change in ADI Nonverbal score per year” value [1, 3] was −2.56. The “Cholesterol effect (regression coefficient) on average change in ADI Repetitive score per year” value [1, 3] was 1.23, the “Cholesterol effect (regression coefficient) on average change in ADI Social score per year” value [1, 3] was −5.14 and the “Cholesterol effect (regression coefficient) on average change in ADI Verbal score per year” value [1, 3] was −6.77. The “Cholesterol effect (regression coefficient) on average change in ADI Nonverbal score per year” value [1, 4] was −2.05, the “Cholesterol effect (regression coefficient) on average change in ADI Repetitive score per year” value [1, 4] was 1.45 and the “Cholesterol effect (regression coefficient) on average change in ADI Social score per year” value [1, 4] was −6.97. For the same compound, the “Cholesterol effect (regression coefficient) on average change in ADI Verbal score per year” value [1, 4] was −4.14, the “ADI language domain (non-verbal) score improvement” value ([1]; non-verbal SLOS children on cholesterol supplementation, p value 0.04) was 2.51 and the “ADI verbal score average change (given as increase)” value ([1]; verbal SLOS children on cholesterol supplementation, p value<0.001) was 6.97 points.
